Test results taken from patent US20170066780A1, “INHIBITORS OF EZH2” (Eli Lilly and Company, priority 2015, published 2017).

What was measured:
[1] = tested on: cell tri-methylated H3K27 in Karpas-422 (EZH2 Y641N) cells; test: H3K27Me3 cell-based ELISA, Karpas-422; conditions: Homo sapiens; Karpas-422, 48 hr
Protocol: The purpose of this assay is to evaluate the ability of a compound to inhibit the functional activity of EZH2 in cells, via measurement of levels of cell tri-methylated H3K27. Plate Karpas-422 (EZH2 Y641N) cells at 5,000 cells/100 μL/well in black 96-well BD BIOCOAT® Cellware, Poly-Lysine plates (BD Biosciences, Cat#354640). Prepare compound plates in a NUNC™ 96-Well Polypropylene MICROWELL™ Plate (Thermo Scientific Cat# #249944) with the addition of 40 μL/well of 10 mM compound (representing starting final concentration of 20 μM) or 40 μL DMSO, then prepare serial dilutions through the transfer of 20 μL from one well to the next. Add 5 μL of test compound to 245 μL/well of growth media in a separate NUNC™ 96-Well Polypropylene MICROWELL™ Plate, and stamp 11 μL of the compound/media mix onto the cell plates. Place cell plates in a 37° C. incubator for 48 hr. Remove plates from the incubator, place the plates at room temperature for 15-20 min, and spin down the plates at 1000 rpm for 5 min Fix cells with 30 μL 16% paraformaldehyde for 15 min at RT. Remove the paraformaldehyde and permeabilize cells with 100 μL/well PBS minus calcium or magnesium (−/−) containing 0.1% TRITON® X-100 for 20 min at RT. Wash plates with PBS (−/−) (2×), followed by incubation for 2 hr at RT of 50 μL/well of primary antibody solution (Diagenode anti-H3K27me3 MAb-181-050; 1:3000 dilution in PBS plus calcium and magnesium (+/+) containing 1% BSA). Wash plates with PBS−/−, (3×) followed by incubation with 50 μL/well secondary antibody solution (Invitrogen goat anti-mouse IgG Alexa 488, Cat# A11001; 1:1000 dilution in PBS+/+) for 1 hr at RT in the dark. Wash plates with PBS−/−, (3×), followed by adding 50 μL/well of 5 μg/mL propidium iodide (Invitrogen; Cat# p3566) staining solution in PBS containing 200 μg/mL RNase (Invitrogen; Cat#12091021). Cover plates with black plate seals and scan on ACUMEN® laser scanning cytometer (TTP Lab Tech) with Ex 488 nm/Em 505 nm-530 nm (H3K27m3 signal) and LP655 nm (cell nuclear signal). […]

[2] = tested on: tumor tri-methylated H3K27 (Karpas-422 xenograft); test: ELISA-based measurement of tumor-derived tri-methylated H3K27, Karpas-422 xenograft; type: in vivo, mice; conditions: Mus musculus, 168 h, day 7, Karpas-422 xenograft, p<0.0001, read-out: inhibition of tumor methylation
Protocol: The purpose of this assay is to evaluate the ability of a test compound to inhibit tumor EZH2 function and EZH2-mediated tumor growth in vivo.
To acid-extract histones from tumors, place tumor sections of approximately 0.5 cm by 0.25 cm or 20-30 mg in weight in Lysing Matrix D 500×2 mL Add RNASE/DNASE-free tubes with beads for homogenization (MP Biomedicals, Cat#6913-500). Add 650 μL of Acid Lysis Buffer (0.4 N HCl containing Protease Inhibitor Cocktail Tablets (Roche; Cat#11836153001)). Homogenize tumor samples 2-3 times at speed 6 m/second for 20 seconds in a FASTPREP® FP120 homogenizer. Set samples on ice for 1 hour to separate. Transfer supernatants to an Eppendorf tube and place on a tube rotator to lyse overnight at 4° C. Spin samples down at 8000 rpm for 10 min at 4° C. Transfer supernatants to a new tube and measure for protein concentration.
Add 150 μL/well of MSD Blocking Solution A (Meso Scale Discovery (MSD); final concentration of 3%) to a MULTI-SPOT® Tri-Methyl-Histone H3(K27) SINGLEPLEX® plate (MSD; Cat#: N45CA-1). Shake at RT for 1 hr. Wash the plate with 1×MSD Tris Wash Buffer™ (MSD), (3×). Dispense 0.25 μg of tumor lysate in 25 μL Acid Lysis Buffer per well in triplicate. Shake overnight at 4° C. Wash the plate three times with 1×MSD Tris Wash Buffer™. […] Add 150 μL/well 1×MSD® Read Buffer and measure chemoelectroluminescence using a MSD SECTOR® Imager 6000 instrument. […]

Karpas-422 cells = test: Karpas-422 proliferation assay; type: cell-based; conditions: Homo sapiens, KARPAS-422, 168 h; 7 days, Cell Titer GLO
Protocol: Plate Karpas-422 cells at a density of 5000 cells/100 μL/well in 96 well, black 96-well BD BIOCOAT® Cellware, Poly-Lysine plates (BD Biosciences, Cat#354640). 40 μL of 10 mM test compound (representing starting final concentration of 20 μM) or add 100% DMSO to a NUNC™ 96-Well Polypropylene MICROWELL™ Plate (Thermo Scientific Cat# #249944). Perform serial dilutions through the transfer of 20 μL from one well to the next. Add 5 μL of compound to a 245 μL/well of growth media in a separate NUNC™ 96-Well Polypropylene MICROWELL™ Plate, and stamp 11 μL of the compound/media mix onto the cell plates. Incubate cell plates at 37° C. for 7 days. Add 100 μL/well of Cell Titer GLO® reagent (Promega, Cat# G7671) to the cell plates. Shake 2 min and measure luminescence using a plate reader. Compounds within the scope of the invention may be tested in this assay substantially as described above.

| SMILES | IC50 [1] [nM] | inhibition at 50 mg/kg ([2]; 50 mpk BID oral gavage) [%] | IC50 (Karpas-422 cells) [nM] | inhibition at 15 mg/kg ([2]; 15 mpk BID) [%] |
| --- | --- | --- | --- | --- |
| COC1CN([C@H]2CC[C@H]([C@@H](C)c3sc4c(c3C)C(=O)N(Cc3c(C)cc(C)[nH]c3=O)CC4)CC2)C1 [Example 1, 5-[(4,6-Dimethyl-2-oxo-1,2-dihydropyridin-3-yl)methyl]-2-{(1R)-1-[trans-4-(3-methoxyazetidin-1-yl)cyclohexyl]ethyl}-3-methyl-6,7-dihydrothieno[3,2-c]pyridin-4(5H)-one] | 23.6 ± 20.5 | 53 | 176 ± 165 |  |
| COC1CN([C@H]2CC[C@H]([C@@H](C)c3sc4c(c3C)C(=O)N(Cc3c(C)cc(C)[nH]c3=O)CCC4)CC2)C1 [Example 38, 5-[(4,6-Dimethyl-2-oxo-1,2-dihydropyridin-3-yl)methyl]-2-{(1R)-1-[trans-4-(3-methoxyazetidin-1-yl)cyclohexyl]ethyl}-3-methyl-5,6,7,8-tetrahydro-4H-thieno[3,2-c]azepin-4-one] | 0.00973 ± 0.00956 |  | 10.1 ± 4.6 | 73 |
